Laboratory results published in the supplement of paper PMC4862054.
Values joined by “and” are separate entries in the source; they are usually repeats but may differ in a detail not shown here. Equal values may be shown once.

How the values were obtained:
Details in all cases: incubation time: 72 h
CAL-148 [1] = test: normalised viability (% of control), CellTiter-Blue; higher = more viable cells (about 100 = DMSO control)
Experimental: (§1)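 DSRT, CellTiter-Blue viability, 72 h incubation. Signal is normalised to DMSO and benzethonium chloride controls. Value is the normalised response at dose 8.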

CAL-51 [2] = test: as above
Experimental: as §1

CAL-85-1 [3] = test: as above
Experimental: as §1

DU-4475 [4] = test: as above
Experimental: as §1

HDQ-P1 [5] = test: as above
Experimental: as §1

MDA-MB-453 [6] = test: as above
Experimental: as §1

DU-4475 [7] = test: as above; remark: listed apart in the source
Experimental: (§2)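 DSRT, CellTiter-Blue viability, 72 h incubation. Signal is normalised to DMSO and benzethonium chloride controls. Value is the normalised response at dose 9.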

HDQ-P1 [8] = test: as above; remark: listed apart in the source
Experimental: as §2

MDA-MB-453 [9] = test: as above; remark: listed apart in the source
Experimental: as §2

BT-474 = test: drug sensitivity score (DSS), CellTiter-Blue viability (DSS (AUC-based score)); higher = stronger viability inhibition; extreme values may be limits of the assay
Experimental: (§3)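 DSRT with the CellTiter-Blue (resazurin reduction) viability readout, fluorescence 560/590 nm, 72 h incubation. Plates were normalised to DMSO and benzethonium chloride controls. DSS is computed from the area under the fitted dose-response curve (5 or 9 concentrations).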

BT-549 = test: as above
Experimental: as §3

CAL-120 = test: as above
Experimental: as §3

CAL-148 [10] = test: as above
Experimental: as §3

CAL-51 [11] = test: as above
Experimental: as §3

CAL-85-1 [12] = test: as above
Experimental: as §3

DU-4475 [13] = test: as above
Experimental: as §3

HCC1143 = test: as above
Experimental: as §3

HCC1599 = test: as above
Experimental: as §3

HCC1937 = test: as above
Experimental: as §3

HDQ-P1 [14] = test: as above
Experimental: as §3

Hs578T = test: as above
Experimental: as §3

MDA-MB-231 = test: as above
Experimental: as §3

MDA-MB-436 = test: as above
Experimental: as §3

MDA-MB-453 [15] = test: as above
Experimental: as §3

MDA-MB-468 = test: as above
Experimental: as §3

MFM-223 = test: as above
Experimental: as §3

SK-BR-3 = test: as above
Experimental: as §3

| SMILES | normalised viability (CAL-148 [1]; 3000 nM) [%] | normalised viability (CAL-51 [2]; 3000 nM) [%] | drug sensitivity score (BT-474) | drug sensitivity score (BT-549) | drug sensitivity score (CAL-120) | drug sensitivity score (CAL-148 [10]) | drug sensitivity score (CAL-51 [11]) | drug sensitivity score (CAL-85-1 [12]) | drug sensitivity score (DU-4475 [13]) | drug sensitivity score (HCC1143) | drug sensitivity score (HCC1599) | drug sensitivity score (HCC1937) | drug sensitivity score (HDQ-P1 [14]) | drug sensitivity score (Hs578T) | drug sensitivity score (MDA-MB-231) | drug sensitivity score (MDA-MB-436) | drug sensitivity score (MDA-MB-453 [15]) | drug sensitivity score (MDA-MB-468) | drug sensitivity score (MFM-223) | drug sensitivity score (SK-BR-3) | other results |
| --- | --- | --- | --- | --- | --- | --- | --- | --- | --- | --- | --- | --- | --- | --- | --- | --- | --- | --- | --- | --- | --- |
| C1CN1c1nc(N2CC2)nc(N2CC2)n1 [Triethylenemelamine] | 85.6 | 109 | 0 | 1.53 | 0 | 0.801 | 0 | 0 | 0 | 0 | 0 | 0 | 0 | 0 | 2.85 | 0 | 1.28 | 0 | 0 | 0 | normalised viability (CAL-85-1 [3]; 3000 nM): 104%; normalised viability (DU-4475 [4]; 3000 nM): 98.7%; normalised viability (HDQ-P1 [5]; 3000 nM): 107%; normalised viability (MDA-MB-453 [6]; 3000 nM): 113%; normalised viability (DU-4475 [7]; 10000 nM): 95.9%; normalised viability (HDQ-P1 [8]; 10000 nM): 101%; normalised viability (MDA-MB-453 [9]; 10000 nM): 40.9% |
| CC[C@H](Nc1ncnc2[nH]cnc12)c1nc2cccc(F)c2c(=O)n1-c1ccccc1 [CAL-101] | 83.3 | 89.3 | 0 | 1.74 | 1.02 | 0 | 0 | 0 | 2.91 | 1.48 | 3.9 | 0 | 2.23 | 0 | 0 | 0 | 2.74 | 2.46 | 0 | 2.96 | normalised viability (CAL-85-1 [3]; 3000 nM): 76.8%; normalised viability (DU-4475 [4]; 3000 nM): 104%; normalised viability (HDQ-P1 [5]; 3000 nM): 80.7%; normalised viability (MDA-MB-453 [6]; 3000 nM): 79.5%; normalised viability (DU-4475 [7]; 10000 nM): -0.99%; normalised viability (HDQ-P1 [8]; 10000 nM): 61.3%; normalised viability (MDA-MB-453 [9]; 10000 nM): 67.4% |
| O=C(O)C1(C(=O)O)CCC1.[NH2-].[NH2-].[Pt+2] [Carboplatin] | 86 | 115 | 0 | 0 | 0 | 2.02 | 1.03 | 0 | 0 | 0 | 0 | 0 | 0 | 0 | 0 | 0 | 1.79 | 0 | 1.39 | 0 | normalised viability (CAL-85-1 [3]; 3000 nM): 87.7%; normalised viability (DU-4475 [4]; 3000 nM): 107%; normalised viability (HDQ-P1 [5]; 3000 nM): 86%; normalised viability (MDA-MB-453 [6]; 3000 nM): 105%; normalised viability (DU-4475 [7]; 10000 nM): 63.2%; normalised viability (HDQ-P1 [8]; 10000 nM): 122%; normalised viability (MDA-MB-453 [9]; 10000 nM): 25.9% |
| O=C(/C=C/c1cccnc1)NCCCCC1CCN(C(=O)c2ccccc2)CC1 [FK-866] |  |  | 9.11 | 23.9 | 19.4 | 9.58 | 14.5 | 9.18 | 19.8 | 22.2 | 18.7 | 7.6 | 9.7 | 25.5 | 15.6 | 22.3 | 27.2 | 30.1 | 23.9 | 0 | normalised viability (CAL-148 [1]; 300 nM): 45.6%; normalised viability (CAL-51 [2]; 300 nM): 34.6%; normalised viability (CAL-85-1 [3]; 300 nM): 54%; normalised viability (DU-4475 [4]; 300 nM): 2.9%; normalised viability (HDQ-P1 [5]; 300 nM): 51.6%; normalised viability (MDA-MB-453 [6]; 300 nM): 22.4%; normalised viability (DU-4475 [7]; 1000 nM): 3.53%; normalised viability (HDQ-P1 [8]; 1000 nM): 58.5%; normalised viability (MDA-MB-453 [9]; 1000 nM): 19.9% |
| C=CC(=O)N1CCC[C@@H](n2nc(-c3ccc(Oc4ccccc4)cc3)c3c(N)ncnc32)C1 |  |  | 12.7 | 0 | 0 | 0 | 0 | 5.07 | 0 | 0 | 0 | 0 | 1.18 | 0 | 0 | 0 | 14.8 | 3.83 | 0 | 18.7 | normalised viability (CAL-148 [1]; 300 nM): 84.6%; normalised viability (CAL-51 [2]; 300 nM): 85.5%; normalised viability (CAL-85-1 [3]; 300 nM): 57.1%; normalised viability (DU-4475 [4]; 300 nM): 96.1%; normalised viability (HDQ-P1 [5]; 300 nM): 87.5%; normalised viability (MDA-MB-453 [6]; 300 nM): 26.9%; normalised viability (DU-4475 [7]; 1000 nM): 97.8%; normalised viability (HDQ-P1 [8]; 1000 nM): 69.1%; normalised viability (MDA-MB-453 [9]; 1000 nM): 26.5% |
| CCN(CC)CCCC(C)Nc1c2ccc(Cl)cc2nc2ccc(OC)cc12 (stereo not given) [Mepacrine] | 56.4 | 77.8 | 4.38 and 1.69 | 2.79 and 5 | 6.95 and 4.06 | 5.43 and 4.13 | 3.49 and 2.1 | 4.8 and 2.06 | 4.6 and 3.08 | 3.86 and 1.45 | 5.6 and 4.64 | 9 and 9.95 | 6.58 and 6.72 | 2.46 and 1.85 | 8.94 and 9.12 | 6.69 and 2.28 | 6.26 and 3.66 |  | 2.66 and 2.79 | 5.2 and 2.74 | normalised viability (CAL-148 [1]; 297 nM): 73.2%; normalised viability (CAL-51 [2]; 297 nM): 93.3%; normalised viability (CAL-85-1 [3]; 297 nM): 87.8%; normalised viability (CAL-85-1 [3]; 3000 nM): 59.5%; normalised viability (DU-4475 [4]; 297 nM): 84%; normalised viability (DU-4475 [4]; 3000 nM): 69.1%; normalised viability (HDQ-P1 [5]; 297 nM): 56.8%; normalised viability (HDQ-P1 [5]; 3000 nM): 42.9%; normalised viability (MDA-MB-453 [6]; 297 nM): 89%; normalised viability (MDA-MB-453 [6]; 3000 nM): 43.1%; normalised viability (DU-4475 [7]; 990 nM): 30.9%; normalised viability (DU-4475 [7]; 10000 nM): 4.09%; normalised viability (HDQ-P1 [8]; 990 nM): 23.8%; normalised viability (HDQ-P1 [8]; 10000 nM): 6.19%; normalised viability (MDA-MB-453 [9]; 990 nM): 15.7%; normalised viability (MDA-MB-453 [9]; 10000 nM): 2.2% |
